The values that follow come from US9688709B2, “Phosphaplatins and their use for treatment of cancers” (OHIO UNIVERSITY, priority 2010, dated 2017).

Bounds are passed on as bounds.

For series [1], the system named is A2780, epithelial human ovarian cancer. Kind of series: Clonogenic assay, A2780 cells. Format: cell-based. The protocol:
(§1) To determine the relative activities of the phosphaplatins of formulas (I)-(VI), each stereoisomer was tested through in vitro clonogenic assays using human ovarian cancer cells, human colon cancer cells, and human head-and-neck cancer cells. […] Cells were cultured on monolayer using RPMI 1640 supplemented with 10% fetal bovine serum, 2 mM glutamine, 0.25 units/mL insulin and penicillin/streptomycin (100 units/mL) in a 37° C. incubator continuously gassed with 5% CO2. Cells were subcultured using 0.0625% trypsin in HBSS to maintain cells in exponential cell growth.
Half-maximal inhibitory concentration (IC50) values were determined using a clonogenic assay or a CyQUANT® cell proliferation assay. In the clonogenic assay, for example, 500-700 A2780 cells from a single cell suspension were plated onto 60 mm petri plates 24 hours before treatment with the platinum compounds to permit cell attachment. On the day of treatment with the platinum compounds described in the above Synthesis Examples, the medium was decanted and was replaced with the appropriate concentration of phosphaplatin compounds (from 50 nM to 75 μM) at three different time points, […] Triplicate plates were set up for each platinum compound concentration. […] These plates were returned to the 37° C. incubator for 7 days for colony formation.
(§2) In TABLES 1-5, except where actual error values are given, each reported value is assumed to have an error not greater than ±15% of the reported value; and unless otherwise specified, the data were obtained from clonogenic assays.
(§3) In further tests, cells were treated with the platinum compounds continuously for 7 days. Colonies were fixed and stained using 2% crystal violet in 4% formaldehyde. Colonies containing more than 50 cells were scored. The number of scored colonies from the triplicate plates was averaged, and this number was divided by the number of cells plated to obtain a value for the fraction of cells forming colonies. These values for fraction of cells forming colonies then were corrected for plating efficiency by dividing the fraction by the number of cells forming colonies in plates that were not treated with platinum compounds. […] Similar data for OVCAR-10 are shown in FIG. 3, comparing (1R,2R)-pyrodach-2 (RD2), (1R,2R)-pyrodach-4 (RD4), trans-(±)-pyrodach-2 (T-D2), and trans-(±)-pyrodach-4 (T-D4).

The subject of series [2] is A2780/C30, epithelial human ovarian cancer resistant to 30 μM cisplatin and 100 μM carboplatin. Kind of series: Clonogenic assay, A2780/C30 cells. Format: cell-based. The settings on record: A2780/C30, 1 hour treatment. The protocol:
as §1
Half-maximal inhibitory concentration (IC50) values were determined using a clonogenic assay or a CyQUANT® cell proliferation assay. In the clonogenic assay, for example, 500-700 A2780 cells from a single cell suspension were plated onto 60 mm petri plates 24 hours before treatment with the platinum compounds to permit cell attachment. On the day of treatment with the platinum compounds described in the above Synthesis Examples, the medium was decanted and was replaced with the appropriate concentration of phosphaplatin compounds (from 50 nM to 75 μM) at three different time points, […] Triplicate plates were set up for each platinum compound concentration. After the 24-hour treatment, the medium containing the platinum compounds was decanted and was replaced with fresh medium. These plates were returned to the 37° C. incubator for 7 days for colony formation.
as §2, §3

Series [3] concerns OVCAR-10, human ovarian cancer resistant to cisplatin treatment. Kind of series: Clonogenic assay, OVCAR-10 cells. In kind it is cell-based. The conditions noted are these: OVCAR-10, 24 hours treatment. The protocol:
as §1
Half-maximal inhibitory concentration (IC50) values were determined using a clonogenic assay or a CyQUANT® cell proliferation assay. In the clonogenic assay, for example, 500-700 A2780 cells from a single cell suspension were plated onto 60 mm petri plates 24 hours before treatment with the platinum compounds to permit cell attachment. On the day of treatment with the platinum compounds described in the above Synthesis Examples, the medium was decanted and was replaced with the appropriate concentration of phosphaplatin compounds (from 50 nM to 75 μM) at three different time points, and the treated cells were placed back into the 37° C. incubator for 24 hours. Triplicate plates were set up for each platinum compound concentration. After the 24-hour treatment, the medium containing the platinum compounds was decanted and was replaced with fresh medium. These plates were returned to the 37° C. incubator for 7 days for colony formation.
as §2, §3

In series [4] the test system is human colon cancer cell lines (HT-29). Nature of the series: CyQUANT cell proliferation assay, HT-29. In kind it is cell-based. The settings on record: HT-29, 72 hours.
Excerpt: (§4) In these experiments, desired number of cells were exposed to phosphaplatins of different concentrations for 72 hr. before measuring the DNA content. Because the DNA content is proportional to the number of surviving cells, the assay provides a quantitative measure of proliferating cells. The technique is described in detail in Jones et al., “Sensitive determination of cell number using the CyQUANT cell proliferation assay,” J. Immunol. Methods, vol. 254, pp. 85-98 (2001).
as §2

The test system of series [5] is A549, human lung adenocarcinoma cancer cells. Nature of the series: CyQUANT cell proliferation assay, A549. Format: cell-based. The conditions noted are these: A549, 72-hour treatment.
Excerpt: as §4, §2

The test system of series [6] is U251, human glioblastoma cancer cells. Nature of the series: CyQUANT cell proliferation assay, U251. Format: cell-based. The settings on record: U251, 72-hour treatment.
Excerpt: as §4, §2

In series [7] the test system is PC-3, human metastatic prostate cancer cells. Kind of series: CyQUANT cell proliferation assay, PC-3. Format: cell-based. The conditions noted are these: PC-3, 72-hour treatment.
Excerpt: as §4, §2

In series [8] the test system is SKMEL-2, human skin melanoma cancer cells. Nature of the series: CyQUANT cell proliferation assay, SKMEL-2. Format: cell-based. The settings on record: SKMEL-2, 72-hour treatment.
Excerpt: as §4, §2

Series [9] relates to MCF-7, human breast cancer cells. Nature of the series: CyQUANT cell proliferation assay, MCF-7. In kind it is cell-based. The conditions noted are these: MCF-7, 72-hour treatment.
Excerpt: as §4, §2

Series [10] concerns OVCAR-8, human ovarian cancer cells with dysfunctional p53. Nature of the series: CyQUANT cell proliferation assay, OVCAR-8. The conditions noted are these: OVCAR-8, 72-hour treatment. Format: cell-based.
Excerpt: as §4, §2

Series [11] deals with OVCAR-10, human ovarian cancer resistant to cisplatin treatment. Nature of the series: CyQUANT cell proliferation assay, OVCAR-10. In kind it is cell-based. The conditions noted are these: OVCAR-10, 72-hour treatment.
Excerpt: as §4, §2

In the next series the test system is Ovarian tumor. Kind of series: Ovarian tumor inflicted SCID mice, tumor growth and log cell kill. In kind it is in vivo. The settings on record: 7 mg/kg. How it is done:
Ovarian tumor inflicted SCID mice were treated with trans-(±)-pyrodach-2 and trans-(±)-pyrodach-4 at various doses up to 40 mg/kg, and tumor growth was monitored up to six weeks or until the tumor size became so large that these animals were sacrificed. The tumor growth or regression by the phosphaplatin-treated mice was then compared with cisplatin-treated mice (7 mg/kg) and carboplatin-treated mice (60 mg/kg). Three doses of platinum compounds were administered on alternate days when the tumor grew to a size of at least 100 mm^3 size. Gross and net log cell kill values were then calculated using the formulas:
[formula] [formula] where T and C are median times in days to grow tumor to a specified size, and Td is the median time in days to double the size of the tumor in control animals.

What is called IC50 is the concentration needed to halve the response being measured.

Consider `N.N.[Cl][Pt][Cl]` [cisplatin], for which the IC50 in [1] (A2780, 1 hour treatment) amounted to 7 µM; in [1] (A2780, 24 hours treatment) it was 5 µM; in series [2] it was 100 µM; in series [3], 4.1 µM; in series [4], 6.5 µM; in [5], 2800 nM. In addition, the half-inhibitory concentration (IC50) in series [6] is 750 nM; in series [7], 1080 nM; in series [8] it was 5.34 µM; in series [9], 5.1 µM; in series [10], 6.3 µM; in series [11] it was 3.1 µM. The “time to death of treated mice” value in the series on Ovarian tumor was not above 7 days. Besides, the tumor response entry with Ovarian tumor is given as “tumor regression”.
